Test results published in EP2792360A1, “(1aR,12bS)-8-cyclohexyl-11-fluoro-N-((1-methylcyclopropyl)sulfonyl)-1a-((3-methyl-3,8-diazabicyclo[3.2.1]oct-8-yl)carbonyl)-1,1a,2,2b-tetrahydrocyclopropa[d]indolo[2,1-a][2]benzazepine-5-carboxamide for use in treating HCV” (IP Gesellschaft für Management mbH, priority 2013, dated 2014).
“Also recorded” adds a separate entry of the source. Where a name gives a salt, the structure may show the parent alone. Values belong to the compound of their own block, whether it stands above or below them.

Experiments:
[1] = Salt selection screens of Formula V free base (organic solvents, aqueous, concentrated acids; XRPD); format: physicochemical; conditions: for XRPD post 1 day maturation / XRPD post 4 days maturation: HCl salt screen, HCl 1.1 equivalents
Procedure: Example 8: Salt Selection: Preparation of the hydrochloride salt was performed in the 20 solvents used for the solubility screen in order to select the optimal solvents for the salt screen. Formula V free base (ca. 10 mg) was suspended in the selected solvents (50 volumes; 500 µl) with stirring at 40°C. HCl (1.1 equivalents; […] in THF) was added, and the temperature was maintained for 30 minutes. […] The experiments were left cycling for further three days. […] Table 2. Results of HCl salt screen from 20 different solvents
Formula V free base (ca. 30 mg) was suspended in selected solvents (THF, nitromethane, acetonitrile and MEK; 50 volumes, 1.5 mL) at 50°C with stirring. The corresponding acid (1 equivalent) was added and the samples were stirred for 30 minutes, prior to ramping at 1 °C -min_1 to 25°C. The samples were placed in a shaker and subjected to heating/cooling cycles, between room temperature and 50°C, with four hours at each condition. Table 3. Input materials used for the salt screen
Further solvent (25 volumes) was added, and the suspensions were allowed to cycle for four more days. […] The samples were stored in a shaker and subjected to heating/cooling cycles, between room temperature and 50°C, with four hours at each condition for one week. […] Water (10% for MeCN, and 5% for THF, MEK and nitromethane, based on ca. 1.5 mL solvent) was added and the samples were cycled for a further 5 days. […] Table 4. XRPD results from the salt screen in acetonitrile.
An aqueous screen was performed. […] Table 11. Aqueous salt screen
The preparation of salts was conducted by dissolution in concentrated aqueous inorganic acids followed by precipitation with THF. Two procedures were performed, on 10 mg or 50 mg scale, investigating the effect of the order of addition of THF on the product produced.
Procedure A: Formula V free base (ca. 10 mg) was dissolved in the corresponding concentrated acid (50 µl) with stirring at room temperature and was added dropwise over THF (500 µl). Samples using HBr and HCl yielded solids and were shaken for 10 minutes and the solid was vacuum filtered, and dried under suction. H3PO4 yielded a solution that was subjected to heating/cooling cycles between room temperature and 50°C, four hours under each condition for 7 days. Procedure B: Formula V free base (ca. 50 mg) was dissolved in the corresponding concentrated acids (250 µl) with stirring at room temperature. THF (2.5 mL) was added dropwise to the solutions, and precipitation started. The samples were shaken for 30 minutes before being placed at 2-8°C for ca. 16 hours. HBr and HCl produced solids, which were vacuum filtered, washed with THF, dried under suction and under vacuum at 40°C for 16 hours. Table 13. Results from the salt screen from concentrated aqueous acids

[2] = Solid form stability of forms of compound of formula (IV) (Temperature / Humidity Controlled XRPD, storage, suspension); format: physicochemical
Procedure: The term"XRPD" denotes the analytical method of X-Ray Powder Diffraction. XRPD patterns were recorded at ambient conditions in transmission geometry with a STOE STADI P diffractometer (Cu K alpha radiation source, primary monochromator, position sensitive detector, angular range 3° to 42° 2Theta, approximately 60 minutes total measurement time). The repeatability of the angular values is in the range of 2Theta ±0.2°. The term "approximately" given in combination with an angular value denotes the repeatability which is in the range of 2Theta ±0.2°. The samples were prepared and analyzed without further processing (e.g. grinding or sieving) of the substance. The relative XRPD peak intensity is dependent upon many factors such as structure factor, temperature factor, crystallinity, polarization factor, multiplicity, and Lorentz factor. Relative intensities may vary considerably from one measurement to another due to preferred orientation effects. Humidity Controlled XRPD analyses were performed in reflection geometry with a Siemens D5000 Diffractometer (Cu radiation source, Ni K beta filter, Scintillation detector, angular range 3° to 42° 2Theta, approximately 180 minutes total measurement time per humidity level). The diffractometer is equipped with an MRI (Materials Research Instruments) humidity chamber. The humidity within the chamber is adjusted with an ANSYCO humidity controller (SYCOS H-HOT). For single crystal structure analysis a single crystal sample was mounted in a nylon loop on a goniometer and measured at ambient conditions. Alternatively, the crystal was cooled in a nitrogen stream during measurement. Data were collected on a GEMINI R Ultra diffractometer from Oxford Diffraction. Cu-radiation of 1.54 A wavelength was used for data collection. Data was processed with the Oxford Diffraction CRYSALIS software. The crystal structure was solved and refined with standard crystallographic software. In this case the program ShelXTL from Bruker AXS (Karlsruhe) was used. The abbreviation "FWHM" denotes the full width at half maximum, which is a width of a peak (e.g. appearing in a spectrum, particularly in an XRPD pattern) at its half height. The term "sharp Bragg diffraction peak" in connection with X-ray diffraction patterns denotes a peak which is observed if Bragg' s law of diffraction is fulfilled. Generally, the FWHM of a sharp Bragg diffraction peak is less than 0.5° 2-theta. The term "amorphous halo" in connection with X-ray diffraction patterns denotes an approximately bell- shaped diffraction maximum in the X-ray powder diffraction pattern of an amorphous material. The FWHM of an amorphous halo is on principle larger than the FWHM of the peak of crystalline material. The terms "FTIR" and "IR" denote the analytical method of infrared spectroscopy. The IR-spectra of the samples are recorded as film of a Nujol suspension consisting of approx. 5 mg of sample and approx. 5 mg of Nujol (mineral oil) between two sodium chloride plates (cross section 13 mm) in transmittance with a FTIR- spectrometer. The spectra were recorded in spectral range between 4000 cm"1 and 600 cm"1, resolution 2 cm"1, and 300 coadded scans on a Magna 860 (thermo/Nicolet) equipped with a DTGS detector. The term "Raman" denotes the analytical method of Raman spectroscopy. For recording Raman spectra, the samples were spread on a glass slide. Raman spectra were recorded in the range of 150-3800 cm"1 with an ARAMIS (HoribaJobinYvon) Raman microscope equipped with a Peltier cooled CCD detector, at excitation of 633 nm, a 1200 1/mm grating, a x50 objective and with 3 exposures of 3s, or 7s for weak Raman scatterers. The term "DSC" denotes the analytical method of Differential Scanning Calorimetry. DSC thermograms were recorded using a Mettler-Toledo™ differential scanning calorimeter DSC820, DSC821 or DSC1 with a FRS05 sensor. […]

[3] = salts from concentrated acids, second Details column (presumably Procedure B), listed as HCl salt
[4] = HBr salt obtained in the salt screen, Acetonitrile
[5] = HBr salt obtained in the salt screen, THF
[6] = salts from concentrated acids, second Details column (presumably Procedure B), listed as HBr salt
[7] = salt screen from concentrated aqueous acids, Formula V free base, Procedure A
[8] = salt screen from concentrated aqueous acids, Formula V free base, Procedure B
[9] = solvent 1-4-Dioxane (entry -13)
[10] = solvent Acetonitrile (entry -04)

SMILES: Cc1onc(-c2ccc(F)cc2)c1COc1ccc(C(=O)N2CCS(=O)(=O)CC2)cn1 [Form A ({drug4a}), (1,1-dioxo-1lambda6-thiomorpholin-4-yl)-{6-[3-(4-fluoro-phenyl)-5-methyl-isoxazol-4-ylmethoxy]-pyridin-3-yl]-methanone]
thermodynamic stability of the solid form [2]: metastable polymorph
solid form changes at elevated temperature ([2]; Temperature Controlled XRPD): do not show solid form changes

SMILES: Cl [HCl]
Observations after adda of THF [1, 7]: White suspension
Observations after adda of THF [1, 8]: White suspension

SMILES: O=P(O)(O)O [Compound H3PO4]
Maturation [1, 7]: Oil
Observations after adda of THF [1, 7]: Solution
Observations after adda of THF [1, 8]: Oil

SMILES: Br [HBr]
Observations after adda of THF [1, 7]: While suspension
Observations after adda of THF [1, 8]: White suspension

Now from value to compound, other results behind:

Ion Chromatography ([1]; HCl salt from nitromethane): 0.8 eqs Cl
XRPD (vacuum dried) ([1]; HCl salt from nitromethane): HCl Pattern 1
Ion Chromatography ([1]; HCl salts from concentrated acids, first Details column (presumably Procedure A)): 1.6 eqs Cl
Ion Chromatography ([1]; HCl salts from concentrated acids, second Details column (presumably Procedure B)): 1.7 eqs Cl
XRPD (air dried) ([1]; salts from concentrated acids, first Details column (presumably Procedure A), listed as HCl salt): HCl Pattern 2
XRPD (air dried) [1, 3]: HCl Pattern 2
SMILES: Nc1nc2cc(-c3ccc4ncc(C(=O)N5CCOCC5)n4c3)ccc2o1 [{drug5a}, (6-(2-aminobenzo[d]oxazol-5-yl)imidazo[1,2-a]pyridin-3-yl)(morpholino)methanone]
XRPD (vacuum dried) [1, 3]: HCl Pattern 2; also recorded: Slight changes, more peaks

Ion Chromatography ([1]; HBr salt from aqueous screen): 0.8 eqs Cl
XRPD (vacuum dried) ([1]; HBr salt from aqueous screen): HBr Pattern 3
Ion Chromatography [1, 4]: 1.1 eqs C 1
XRPD (vacuum dried) [1, 4]: HBr Pattern 1, slight evidence of FB
XRPD (vacuum dried) ([1]; HBr salt obtained in the salt screen, Nitromethane): HBr Pattern 1, slight evidence of FB
Ion Chromatography [1, 5]: 0.8 eqs Cl
XRPD (vacuum dried) [1, 5]: HBr Pattern 1
Ion Chromatography ([1]; HBr salts from concentrated acids, first Details column (presumably Procedure A)): 1.7 eqs Br
Ion Chromatography ([1]; HBr salts from concentrated acids, second Details column (presumably Procedure B)): 1.8 eqs Br
XRPD (air dried) ([1]; salts from concentrated acids, first Details column (presumably Procedure A), listed as HBr salt): HBr Pattern 2
XRPD (air dried) [1, 6]: HBr Pattern 4
SMILES: Nc1nc2cc(-c3ccc4ncc(C(=O)N5CCOCC5)n4c3)ccc2o1 [{drug5b}, (6-(2-aminobenzo[d]oxazol-5-yl)imidazo[1,2-a]pyridin-3-yl)(morpholino)methanone]
XRPD (vacuum dried) [1, 6]: HBr Pattern 4; also recorded: Slight changes, more peaks

XRPD post 4 days maturation [1, 9]: Amorphous
XRPD post 1 day maturation ([1]; solvent Acetone (entry -05)): New peaks + free base
XRPD post 4 days maturation ([1]; solvent Acetone (entry -05)): Free base
XRPD post 1 day maturation [1, 10]: New peaks + free base
XRPD post 4 days maturation [1, 10]: HCl Pattern 1
XRPD post 1 day maturation ([1]; solvent DIPE (entry -10)): New peaks + free base
XRPD post 4 days maturation ([1]; solvent DIPE (entry -10)): New peaks + free base
XRPD post 4 days maturation ([1]; solvent EtOAc (entry -08)): New peaks + free base
XRPD post 4 days maturation ([1]; solvent Ethanol (entry -02)): Amorphous
XRPD post 4 days maturation ([1]; solvent IPA (entry -03)): Amorphous
XRPD post 4 days maturation ([1]; solvent IPAc (entry -09)): New peaks + free base
XRPD post 1 day maturation ([1]; solvent MEK (entry -06)): New peaks + free base
XRPD post 4 days maturation ([1]; solvent MEK (entry -06)): HCl Pattern 1
XRPD post 1 day maturation ([1]; solvent MIBK (entry -07)): New peaks + free base
XRPD post 4 days maturation ([1]; solvent MIBK (entry -07)): New peaks + free base
XRPD post 1 day maturation ([1]; solvent MeNO2 (entry -14)): HCl Pattern I
XRPD post 4 days maturation ([1]; solvent Methanol (entry -01)): Loss of crystallinity
XRPD post 1 day maturation ([1]; solvent TBME (entry -11)): New peaks + free base
XRPD post 4 days maturation ([1]; solvent TBME (entry -11)): New peaks + free base
XRPD post 4 days maturation ([1]; solvent THF (entry -12)): HCl Pattern 1
XRPD post 1 day maturation ([1]; solvent Toluene (entry -15)): New peaks + free base
XRPD post 4 days maturation ([1]; solvent Toluene (entry -15)): New peaks + free base
XRPD post 1 day maturation ([1]; solvent tBuOH (entry -18)): New peaks + free base
XRPD post 4 days maturation ([1]; solvent tBuOH (entry -18)): Free base
SMILES: Nc1nc2cc(-c3ccc4ncc(C(=O)N5CCOCC5)n4c3)ccc2o1 [compound of Formula V, (6-(2-aminobenzo[d]oxazol-5-yl)imidazo[1,2-a]pyridin-3-yl)(morpholino)methanone]
XRPD post 1 day maturation [1, 9]: New peaks free base (loss of crystallinity)
XRPD post 1 day maturation ([1]; solvent BuOAc (entry -16)): New peaks + free base (loss of crystallinity)
XRPD post 4 days maturation ([1]; solvent BuOAc (entry -16)): New peaks + free base (loss of crystallinity)
XRPD post 1 day maturation ([1]; solvent DCM (entry -17)): New peaks + free base (loss of crystallinity)
XRPD post 4 days maturation ([1]; solvent DCM (entry -17)): New peaks + free base (loss of crystallinity)
XRPD post 1 day maturation ([1]; solvent EtOAc (entry -08)): New peaks + free base (loss of crystallinity)
XRPD post 1 day maturation ([1]; solvent Ethanol (entry -02)): New peaks + free base (loss of crystallinity)
XRPD post 1 day maturation ([1]; solvent IPA (entry -03)): New peaks + free base (loss of crystallinity)
XRPD post 1 day maturation ([1]; solvent IPAc (entry -09)): New peaks + free base (loss of crystallinity)
XRPD post 1 day maturation ([1]; solvent Methanol (entry -01)): New peaks + free base (loss of crystallinity)
XRPD post 1 day maturation ([1]; solvent THF (entry -12)): New peaks + free base (loss of crystallinity)
